# In US10881642B2, “Autophagy enhancer and use thereof” (Industry-Academic Cooperation Foundation, Yonsei University, priority 2016, dated 2021):
# Experiments:
# [1] = test system: mTOR; assay: Western blot for mTOR inhibition (S6K1 phosphorylation); format: cell-based; conditions: immunoblot
# Protocol: Screening of autophagy enhancer. […] Luciferase assay. Firefly and Renilla luciferase assays were conducted using the Dual-Luciferase Reporter Assay System (Promega) according to the manufacturer's recommendation. In brief, cells were lysed in 1× lysis buffer and subjected to a single round of freezing/thawing. Firefly luciferase was determined after mixing 5 μl of lysate with 25 μl of Luciferase Assay Reagent II. Renilla luciferase was then determined after further addition of 20 ul of Stop&Glo Reagent. Cell culture and media and drugs treatment. […] Cytotoxicity was determined by the measurement of LDH release in cell culture media using the LDH kit (Roche), according to the protocol from the manufacturer. […] Imaging and image quantification. […] Formation of acidic vesicular organelles was quantitated by staining the cells with acridine orange (Invitrogen, 5 ug/ml, 10 min). […] Cells or tissues were solubilized in lysis buffer supplemented with protease and phosphatase inhibitors and protein concentration was measured by the Bradford method. Ten to 30 micrograms were loaded on 4-12% Bis-Tris gel (NUPAGE, Invitrogen) or 8-15% SDS-PAGE, transferred to PVDF membranes and analyzed by western blot using the ECL method (Pierce). […] Protein levels were quantified by using ImageJ software analysis. […]
# [2] = Liver microsomal stability; format: in vitro ADME; conditions: 30 min incubation with human liver microsome, 10 μM
SMILES,mTOR inhibition [1],"microsomal stability, remaining [2]"
"COc1oc(-c2ccccc2Cl)nc1S(=O)(=O)c1ccccc1 [MSL-7, 2-(2-chlorophenyl)-5-methoxy-4-(phenylsulfonyl) oxazole]",without cellular toxicity or mTOR inhibition,90.5%
CSc1oc(-c2ccccc2)nc1S(=O)(=O)c1ccc(F)cc1 [MSL],does not involve mTOR inhibition,less than 10%
